Source: ChEMBL document CHEMBL1123942, “Effect of acyclic pyrimidines related to 9-[(1,3-dihydroxy-2-propoxy)methyl]guanine on herpesviruses” (J Med Chem, 1988)

Key:
Cytomegalovirus [1] = assay: Inhibition of growth of human cytomegalovirus (HCMV) was determined by plaque reduction assay in human lung fibroblast cell line; format: functional, organism-based; details: Human betaherpesvirus 5, Fibroblast
Human alphaherpesvirus 1 [2] = assay: (§1) Inhibition of growth of herpes simplex virus (HSV-1) by plaque reduction assay in vero cell line; format: functional, organism-based; details: Human alphaherpesvirus 1, Vero
Human alphaherpesvirus 3 = assay: Inhibition of growth of varicella zoster virus(VZV) by plaque reduction assay in vero cell line; format: functional, organism-based; details: Human alphaherpesvirus 3, Vero
Cytomegalovirus [3] = assay: Inhibition of growth of human cytomegalovirus (HCMV) by plaque reduction assay in human lung fibroblast cell line; format: functional, organism-based; details: Human betaherpesvirus 5, Fibroblast
Human alphaherpesvirus 2 = assay: Inhibition of growth of herpes simplex virus (HSV-2) by plaque reduction assay in vero cell line; format: functional, organism-based; details: Human alphaherpesvirus 2, Vero
Cytomegalovirus [4] = assay: Inhibition of growth of human cytomegalovirus (HCMV) was determined by plaque reduction assay in human foreskin fibroblast cell line; format: functional, organism-based; details: Human betaherpesvirus 5, Fibroblast
Cytomegalovirus [5] = assay: Inhibition of growth of human cytomegalovirus (HCMV) was determined by plaque reduction assay in Detroit cells; format: functional, organism-based; details: Human betaherpesvirus 5, Detroit
Human alphaherpesvirus 1 [6] = assay: as §1; format: functional, organism-based, herpes simplex vir; details: Human alphaherpesvirus 1, Vero

Structure (SMILES)	IC50 (Cytomegalovirus [1]) [µM]	IC50 (Human alphaherpesvirus 3) [µM]	also measured
Nc1nc(=O)n(COC(CO)CO)cc1F	100	–	–
CN(C)c1ccn(COC(CO)CO)c(=O)n1	> 100	> 100	IC50 (Human alphaherpesvirus 1 [2]): > 100 µM
Nc1ccn(COC(CO)CO)c(=S)n1	> 100	–	–
Nc1nc(=O)n(COC(CO)CO)cc1I	> 100	> 100	–
COC(=O)CC(CC(=O)OC)OC[n+]1ccc(N)nc1	> 100	–	–
Cc1cn(COC(CO)CO)c(=O)[nH]c1=O	> 250	> 100	–
Cc1cn(COC(CO)CO)c(=O)nc1N	> 100	> 100	–
Nc1cn(COC(CO)CO)c(=O)[nH]c1=O	–	> 100	–
CNc1ccn(COC(CO)CO)c(=O)n1	> 100	–	–
Nc1ccn(COC(CO)CO)c(=O)n1	–	17.1	IC50 (Cytomegalovirus [3]): 11.2 µM; IC50 (Human alphaherpesvirus 1 [2]): 140 µM; IC50 (Human alphaherpesvirus 2): 50 µM
O=c1[nH]c(=O)n(COC(CO)CO)cc1Br	> 100	> 100	–
O=c1ccn(COC(CO)CO)c(=O)[nH]1	> 250	> 100	–
Nc1ncn(COC(CO)CO)c(=O)n1	100	–	IC50 (Human alphaherpesvirus 2): > 100 µM; IC50 (Cytomegalovirus [4]): > 25 µM
Nc1nc(=O)ccn1COC(CO)CO	> 100	–	–
Nc1nc2c(ncn2COC(CO)CO)c(=O)[nH]1 [GANCICLOVIR]	3.4	2.8	IC50 (Human alphaherpesvirus 1 [2]): 0.1 µM; IC50 (Human alphaherpesvirus 2): 0.1 µM
O=c1[nH]c(=O)n(COC(CO)CO)cc1I [IODACYCLUR]	–	> 100	IC50 (Cytomegalovirus [5]): > 100 µM; IC50 (Human alphaherpesvirus 1 [6]): > 100 µM
